# Test results published in patent US9156796B2, “Benzoimidazole-carboxylic acid amide derivatives as APJ receptor modulators” (SANOFI, priority 2013, dated 2015).
# Biological target: T1, human apelin receptor (Homo sapiens, UniProt P35414)
# T1 construct: expressed in transfected cells
# T1 sequence (P35414 1-380): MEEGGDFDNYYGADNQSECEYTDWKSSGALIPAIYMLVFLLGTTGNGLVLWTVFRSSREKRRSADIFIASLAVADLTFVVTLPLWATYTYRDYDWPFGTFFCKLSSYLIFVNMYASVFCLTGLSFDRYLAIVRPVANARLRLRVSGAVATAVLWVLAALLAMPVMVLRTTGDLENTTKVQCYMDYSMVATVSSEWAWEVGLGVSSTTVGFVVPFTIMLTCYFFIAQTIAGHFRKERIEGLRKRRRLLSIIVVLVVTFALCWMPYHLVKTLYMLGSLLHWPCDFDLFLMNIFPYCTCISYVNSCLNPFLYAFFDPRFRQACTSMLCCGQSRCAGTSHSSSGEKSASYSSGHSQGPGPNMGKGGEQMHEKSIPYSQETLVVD
# Assay: Determination of agonism on the human apelin receptor by a calcium fluorescence assay (FLIPR)
# Type: cell-based
# Details: HEK293 cells stably transfected with human apelin receptor and Giaq protein, Fluo-4 calcium fluorescence, read-out: EC50 (APJ agonism)
# Method in brief: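 HEK293 cells stably co-expressing human apelin receptor and promiscuous Giaq, loaded 1 h at 37 °C with Fluo-4 (4 μM) in probenecid-containing Hepes buffer, pH 7.4. Compounds, at least 7 concentrations in triplicate, added in FLIPR Tetra; peak calcium fluorescence normalized to 1 μM apelin-13 as 100% to derive EC50.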
row,Structure (SMILES),EC50
1,"CCCN(CCC)C1CCN(C(=O)[C@H](CC(C)C)NC(=O)c2ccc3c(c2)nc(Cc2cccs2)n3C(CC)CC)CC1 [Example 284, 1-(1-Ethyl-propyl)-2-thiophen-2-ylmethyl-1H-benzoimidazole-5-carboxylic acid [(S)-1-(4-dipropylamino-piperidine-1-carbonyl)-3-methyl-butyl]-amide]",0.252 µM
2,"CCC(CC)n1c(Cc2cccs2)nc2cc(C(=O)N[C@@H](CC(C)C)C(=O)NCCN3CCCC3)ccc21 [Example 230, 1-(1-Ethyl-propyl)-2-thiophen-2-ylmethyl-1H-benzoimidazole-5-carboxylic acid [(S)-3-methyl-1-(2-pyrrolidin-1-yl-ethylcarbamoyl)-butyl]-amide]",0.288 µM
3,"CCC(CC)n1c(Cc2cccs2)nc2cc(C(=O)N[C@@H](CC(C)C)C(=O)N3CCCC(COC)C3)ccc21 (stereo partly drawn) [Example 378, 1-(1-Ethyl-propyl)-2-thiophen-2-ylmethyl-1H-benzoimidazole-5-carboxylic acid [(S)-1-(3-methoxymethyl-piperidine-1-carbonyl)-3-methyl-butyl]-amide]",2.44 µM
4,"CCC(CC)n1c(Cc2cccs2)nc2cc(C(=O)N[C@@H](CC(C)C)C(=O)N3CC4CC3CN4c3cccc(F)c3)ccc21 (stereo partly drawn) [Example 326, 1-(1-Ethyl-propyl)-2-thiophen-2-ylmethyl-1H-benzoimidazole-5-carboxylic acid {(S)-1-[5-(3-fluoro-phenyl)-2,5-diaza-bicyclo[2.2.1]heptane-2-carbonyl]-3-methyl-butyl}-amide]",16.4 µM
5,"CCC(CC)n1c(Cc2cccs2)nc2cc(C(=O)NC(CCO)C3CC3)ccc21 (stereo not drawn) [Example 213, 1-(1-Ethyl-propyl)-2-thiophen-2-ylmethyl-1H-benzoimidazole-5-carboxylic acid (1-cyclopropyl-3-hydroxy-propyl)-amide]",29.9 µM
6,"CCC(CC)n1c(Cc2cccs2)nc2cc(C(=O)N[C@@H](CC(C)C)C(=O)NC3CCCC3)ccc21 [Example 237, 1-(1-Ethyl-propyl)-2-thiophen-2-ylmethyl-1H-benzoimidazole-5-carboxylic acid ((S)-1-cyclopentylcarbamoyl-3-methyl-butyl)-amide]",2.48 µM
7,"CC(C)Cn1c(CC2CCCCC2)nc2cc(C(=O)N[C@@H](CC3CCCCC3)C(=O)O)ccc21 [Example 134, (S)-3-Cyclohexyl-2-[(2-cyclohexylmethyl-1-isobutyl-1H-benzoimidazole-5-carbonyl)-amino]-propionic acid]",7.15 µM
8,"CCC(CC)n1c(Cc2cccs2)nc2cc(C(=O)N[C@@H](CC(C)C)C(=O)N(C)Cc3ccccc3)ccc21 [Example 263, 1-(1-Ethyl-propyl)-2-thiophen-2-ylmethyl-1H-benzoimidazole-5-carboxylic acid [(S)-1-(benzyl-methyl-carbamoyl)-3-methyl-butyl]-amide]",4.3 µM
9,"CCC(CC)n1c(Cc2cccs2)nc2cc(C(=O)N[C@@H](CC(C)C)C(=O)NC3CCN(CC(C)C)CC3)ccc21 [Example 337, 1-(1-Ethyl-propyl)-2-thiophen-2-ylmethyl-1H-benzoimidazole-5-carboxylic acid [(S)-1-(1-isobutyl-piperidin-4-ylcarbamoyl)-3-methyl-butyl]-amide]",0.331 µM
10,"CCC(CC)n1c(Cc2cncs2)nc2cc(C(=O)N[C@H](CC(=O)O)CC(C)C)ccc21 [Example 50, (S)-3-{[1-(1-Ethyl-propyl)-2-thiazol-5-ylmethyl-1H-benzoimidazole-5-carbonyl]-amino}-5-methyl-hexanoic acid]",0.205 µM
11,"CCC(CC)n1c(Cc2cccs2)nc2cc(C(=O)N[C@H](C(=O)O)C(C)C)ccc21 [Example 122, (S)-2-{[1-(1-Ethyl-propyl)-2-thiophen-2-ylmethyl-1H-benzoimidazole-5-carbonyl]-amino}-3-methyl-butyric acid]",4.38 µM
12,"CCC(CC)n1c(Cc2cccs2)nc2cc(C(=O)N[C@@H](CC(C)C)C(=O)NCCS(N)(=O)=O)ccc21 [Example 401, 1-(1-Ethyl-propyl)-2-thiophen-2-ylmethyl-1H-benzoimidazole-5-carboxylic acid [(S)-3-methyl-1-(2-sulfamoyl-ethylcarbamoyl)-butyl]-amide]",0.6 µM
13,"CCC(CC)n1c(Cc2cccs2)nc2cc(C(=O)N[C@@H](CC(C)C)C(=O)NC3CCN(CCc4ccccc4)CC3)ccc21 [Example 338, 1-(1-Ethyl-propyl)-2-thiophen-2-ylmethyl-1H-benzoimidazole-5-carboxylic acid [(S)-3-methyl-1-(1-phenethyl-piperidin-4-ylcarbamoyl)-butyl]-amide]",1.59 µM
14,"CCC(CC)n1c(Cc2cccs2)nc2cc(C(=O)N[C@@H](CC(C)C)C(=O)NC[C@@H]3CCCO3)ccc21 [Example 368, 1-(1-Ethyl-propyl)-2-thiophen-2-ylmethyl-1H-benzoimidazole-5-carboxylic acid ((S)-3-methyl-1-{[(S)-1-(tetrahydro-furan-2-yl)methyl]-carbamoyl}-butyl)-amide]",1.88 µM
15,"CCC(CC)n1c(Cc2cscn2)nc2cc(C(=O)N[C@H](C(=O)O)[C@@H](C)CC)ccc21 [Example 85, (2S,3S)-2-{[1-(1-Ethyl-propyl)-2-thiazol-4-ylmethyl-1H-benzoimidazole-5-carbonyl]-amino}-3-methyl-pentanoic acid]",7.8 µM
16,"CCC(CC)n1c(Cc2cccs2)nc2cc(C(=O)N[C@@H](CC(C)C)C(=O)N3CCC(COC)CC3)ccc21 [Example 374, 1-(1-Ethyl-propyl)-2-thiophen-2-ylmethyl-1H-benzoimidazole-5-carboxylic acid [(S)-1-(4-methoxymethyl-piperidine-1-carbonyl)-3-methyl-butyl]-amide]",2.18 µM
17,"CC(C)C[C@H](NC(=O)c1ccc2c(c1)nc(Cc1cccs1)n2CC1CCCCC1)C(=O)O [Example 83, (S)-2-[(1-Cyclohexylmethyl-2-thiophen-2-ylmethyl-1H-benzoimidazole-5-carbonyl)-amino]-4-methyl-pentanoic acid]",18.2 µM
18,"CCC(CC)n1c(Cc2cccs2)nc2cc(C(=O)N[C@H](Cc3nnn[nH]3)CC(C)C)ccc21 [Example 472, 1-(1-Ethyl-propyl)-2-thiophen-2-ylmethyl-1H-benzoimidazole-5-carboxylic acid [(S)-3-methyl-1-(1H-tetrazol-5-ylmethyl)-butyl]-amide]",0.038 µM
19,"CCC(CC)n1c(Cc2cccs2)nc2cc(C(=O)N[C@@H](Cc3ccccc3)C(=O)O)ccc21 [Example 124, (S)-2-{[1-(1-Ethyl-propyl)-2-thiophen-2-ylmethyl-1H-benzoimidazole-5-carbonyl]-amino}-3-phenyl-propionic acid]",9.35 µM
20,"CCC(CC)n1c(Cc2cccs2)nc2cc(C(=O)N[C@@H](CC(C)C)C(=O)NCCCN3CCCC3)ccc21 [Example 241, 1-(1-Ethyl-propyl)-2-thiophen-2-ylmethyl-1H-benzoimidazole-5-carboxylic acid [(S)-3-methyl-1-(3-pyrrolidin-1-yl-propylcarbamoyl)-butyl]-amide]",0.257 µM
21,"CCC(CC)n1c(Cc2cccs2)nc2cc(C(=O)N[C@@H](CC(C)C)C(=O)N3CCC(N(C)Cc4ccccc4)CC3)ccc21 [Example 345, 1-(1-Ethyl-propyl)-2-thiophen-2-ylmethyl-1H-benzoimidazole-5-carboxylic acid {(S)-1-[4-(benzyl-methyl-amino)-piperidine-1-carbonyl]-3-methyl-butyl}-amide]",1.67 µM
22,"CCCCC(CC(=O)O)NC(=O)c1ccc2c(c1)nc(Cc1cccs1)n2C(CC)CC (single isomer, unassigned) [Example 452]",0.049 µM
23,"CCC(CC)n1c(Cc2cccs2)nc2cc(C(=O)N[C@@H](CC(C)C)C(=O)NCCCN3CC(C)CC(C)C3)ccc21 (stereo partly drawn) [Example 332, 1-(1-Ethyl-propyl)-2-thiophen-2-ylmethyl-1H-benzoimidazole-5-carboxylic acid {(S)-1-[3-(3,5-dimethyl-piperidin-1-yl)-propylcarbamoyl]-3-methyl-butyl}-amide]",0.692 µM
24,"CCC(CC)n1c(Cc2cccs2)nc2cc(C(=O)N[C@@H](CC(C)C)C(=O)N3CCN(c4ccccc4OC)CC3)ccc21 [Example 315, 1-(1-Ethyl-propyl)-2-thiophen-2-ylmethyl-1H-benzoimidazole-5-carboxylic acid {(S)-1-[4-(2-methoxy-phenyl)-piperazine-1-carbonyl]-3-methyl-butyl}-amide]",2.45 µM
25,"CCC(CC)n1c(Cc2ccno2)nc2cc(C(=O)N[C@H](CC(=O)O)CC(C)C)ccc21 [Example 105, (S)-3-{[1-(1-Ethyl-propyl)-2-isoxazol-5-ylmethyl-1H-benzoimidazole-5-carbonyl]-amino}-5-methyl-hexanoic acid]",5.47 µM
26,"CCC(CC)n1c(Cc2cccs2)nc2cc(C(=O)N[C@@H](CC(C)C)C(=O)NC3CCN(c4ccccc4)CC3)ccc21 [Example 317, 1-(1-Ethyl-propyl)-2-thiophen-2-ylmethyl-1H-benzoimidazole-5-carboxylic acid [(S)-3-methyl-1-(1-phenyl-piperidin-4-ylcarbamoyl)-butyl]-amide]",14 µM
27,"CCC(CC)n1c(Cc2cccs2)nc2cc(C(=O)N[C@@H](CC(C)C)C(=O)NCc3ccc(OC)cc3)ccc21 [Example 236, 1-(1-Ethyl-propyl)-2-thiophen-2-ylmethyl-1H-benzoimidazole-5-carboxylic acid [(S)-1-(4-methoxy-benzylcarbamoyl)-3-methyl-butyl]-amide]",3.87 µM
